Measured values reported in paper PMC11377542, “An artificial intelligence accelerated virtual screening platform for drug discovery” (Nature Communications, 2024).
No end group written: not given here. *: point of attachment. Biotin = O=C1N[C@H]2[C@H](CS[C@H]2CCCCC(=O)*)N1

T1: GST-tagged kelch repeat domain of human KLHDC2 (amino acid 1-362) (human, UniProt Q9Y2U9 1-362)
T1 construct: kelch repeat domain of human KLHDC2, UniProt Q9Y2U9, amino acids 1-362; A TEV cleavage site lies between GST and KLHDC2; GST was not cleaved for the AlphaLISA and BLI assays; The crystallised construct (22-362, His-TSF cleaved, from E. coli) was used only with the small molecule C29; also called GST-KLHDC2; GST-tagged KLHDC2; source: HighFive insect cells (baculovirus), purified (glutathione …)
T1 sequence (looked up): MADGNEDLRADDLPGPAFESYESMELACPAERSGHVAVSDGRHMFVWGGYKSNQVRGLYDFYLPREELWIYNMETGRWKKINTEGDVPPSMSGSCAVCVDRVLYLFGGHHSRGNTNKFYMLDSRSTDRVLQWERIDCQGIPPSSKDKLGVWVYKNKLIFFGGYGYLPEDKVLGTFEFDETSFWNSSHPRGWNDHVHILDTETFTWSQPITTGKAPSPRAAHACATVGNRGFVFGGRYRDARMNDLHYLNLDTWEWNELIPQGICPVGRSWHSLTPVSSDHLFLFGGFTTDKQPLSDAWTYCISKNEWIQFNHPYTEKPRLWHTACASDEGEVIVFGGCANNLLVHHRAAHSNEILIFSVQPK

T2: KLHDC2 (Homo sapiens, UniProt Q9Y2U9)
T2 construct: human KLHDC2 (UniProt: Q9Y2U9, amino acid 1–362); made in house; host or cells: HighFive insect cells (baculovirus, pFastBac)
T2 sequence (Q9Y2U9 1-362): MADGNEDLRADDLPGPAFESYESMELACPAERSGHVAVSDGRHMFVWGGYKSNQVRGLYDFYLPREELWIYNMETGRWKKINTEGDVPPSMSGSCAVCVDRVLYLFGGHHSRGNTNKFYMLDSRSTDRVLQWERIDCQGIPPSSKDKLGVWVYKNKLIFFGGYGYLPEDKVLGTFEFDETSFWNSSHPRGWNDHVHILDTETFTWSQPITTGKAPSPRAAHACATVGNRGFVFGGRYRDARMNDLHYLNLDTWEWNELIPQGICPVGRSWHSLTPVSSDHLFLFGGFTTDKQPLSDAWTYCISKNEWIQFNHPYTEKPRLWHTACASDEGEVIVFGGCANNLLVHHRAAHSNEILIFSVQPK


Target: T1, GST-tagged kelch repeat domain of human …
Experiment: AlphaScreen or HTRF; AlphaLISA competition assay: GST-KLHDC2 (3.83 nM) on anti-GST acceptor beads, biotinylated SelK peptide (5.55 nM) on streptavidin donor beads; 25 mM HEPES pH 7.5, 100 mM NaCl, 1 mM TCEP, 0.1% Tween-20, 0.05 mg/ml BSA; small-molecule competitors 15 nM to 1.5 mM
Conditions: both partners purified

binding result | Molecule
binds | Biotin-HLRGSPPPMAGG (diglycine-containing C-end degron of SelK (selenoprotein K), 12 aa; the C-terminal mark is cut off in print; also called SelK C-end degron peptide; biotinylated 12 aa SelK peptide; source: synthetic peptide (Bio-Synthesis, Inc.)) [N-terminal biotinylated 12 aa SelK degron peptide]

Target: T3, hNaV1.7 channel (Homo sapiens, UniProt Q15858)
T3 construct: expressed in transfected cells
T3 sequence (Q15858 whole entry): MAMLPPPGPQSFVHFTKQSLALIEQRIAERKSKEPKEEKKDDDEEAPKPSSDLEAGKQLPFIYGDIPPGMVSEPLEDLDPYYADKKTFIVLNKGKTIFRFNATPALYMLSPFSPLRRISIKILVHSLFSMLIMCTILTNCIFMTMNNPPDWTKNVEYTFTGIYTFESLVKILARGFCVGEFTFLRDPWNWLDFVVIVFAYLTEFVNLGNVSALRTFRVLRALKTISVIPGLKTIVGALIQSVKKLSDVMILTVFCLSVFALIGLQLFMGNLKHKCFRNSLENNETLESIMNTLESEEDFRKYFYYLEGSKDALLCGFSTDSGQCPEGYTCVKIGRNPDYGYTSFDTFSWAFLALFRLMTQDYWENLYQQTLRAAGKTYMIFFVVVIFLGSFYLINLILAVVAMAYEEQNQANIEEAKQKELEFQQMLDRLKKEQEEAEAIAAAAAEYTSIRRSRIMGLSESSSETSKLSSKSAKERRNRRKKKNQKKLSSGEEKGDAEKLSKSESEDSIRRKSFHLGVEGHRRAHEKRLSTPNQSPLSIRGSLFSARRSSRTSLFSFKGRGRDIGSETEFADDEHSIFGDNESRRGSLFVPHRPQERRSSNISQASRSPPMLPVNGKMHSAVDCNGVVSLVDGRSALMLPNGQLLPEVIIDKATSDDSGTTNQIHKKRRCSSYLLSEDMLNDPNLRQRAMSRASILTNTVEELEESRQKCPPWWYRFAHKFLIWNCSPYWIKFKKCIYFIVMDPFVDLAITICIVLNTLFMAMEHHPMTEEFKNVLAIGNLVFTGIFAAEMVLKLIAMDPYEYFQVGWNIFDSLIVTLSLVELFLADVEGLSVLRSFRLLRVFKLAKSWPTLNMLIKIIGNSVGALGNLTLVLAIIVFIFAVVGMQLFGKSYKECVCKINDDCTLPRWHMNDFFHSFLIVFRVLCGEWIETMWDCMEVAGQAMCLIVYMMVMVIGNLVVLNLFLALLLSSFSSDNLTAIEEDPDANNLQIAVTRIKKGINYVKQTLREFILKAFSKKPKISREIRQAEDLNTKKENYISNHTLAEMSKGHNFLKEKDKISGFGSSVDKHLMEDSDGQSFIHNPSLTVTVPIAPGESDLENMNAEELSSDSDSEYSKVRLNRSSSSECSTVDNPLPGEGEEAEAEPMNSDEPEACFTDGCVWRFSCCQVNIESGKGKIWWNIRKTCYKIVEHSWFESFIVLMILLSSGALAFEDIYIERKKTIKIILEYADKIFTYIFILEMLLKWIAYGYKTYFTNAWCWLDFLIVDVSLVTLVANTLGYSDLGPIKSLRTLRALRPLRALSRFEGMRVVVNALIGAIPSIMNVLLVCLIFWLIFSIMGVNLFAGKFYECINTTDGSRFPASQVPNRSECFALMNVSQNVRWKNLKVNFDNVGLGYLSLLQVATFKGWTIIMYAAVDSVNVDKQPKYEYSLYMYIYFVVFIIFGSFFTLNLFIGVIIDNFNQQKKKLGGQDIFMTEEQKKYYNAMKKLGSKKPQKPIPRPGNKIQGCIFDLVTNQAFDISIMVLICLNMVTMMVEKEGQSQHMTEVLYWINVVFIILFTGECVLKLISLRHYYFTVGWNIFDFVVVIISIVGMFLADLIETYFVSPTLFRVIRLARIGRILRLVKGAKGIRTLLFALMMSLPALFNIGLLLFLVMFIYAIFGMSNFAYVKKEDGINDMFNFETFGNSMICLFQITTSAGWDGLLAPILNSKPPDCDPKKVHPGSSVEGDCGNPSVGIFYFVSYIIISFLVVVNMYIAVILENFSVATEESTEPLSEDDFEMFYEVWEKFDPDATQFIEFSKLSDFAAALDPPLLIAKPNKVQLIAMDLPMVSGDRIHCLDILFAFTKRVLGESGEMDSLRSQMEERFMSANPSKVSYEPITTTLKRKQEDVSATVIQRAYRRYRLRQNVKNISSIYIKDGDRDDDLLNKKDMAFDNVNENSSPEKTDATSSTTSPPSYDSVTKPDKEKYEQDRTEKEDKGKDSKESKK
Experiment: Whole-cell patch-clamp electrophysiology on hNaV1.7 stably expressed in HEK-293 cells
Assay type: cell-based
Conditions: NaV1.7 inactivated state, -70 mV holding potential; mean; read-out: inactivated-state IC50
Source text: We first clustered the top 100,000 ranked small molecules, then applied filters on the top 1000 cluster representative molecules. A total of 160 molecules that passed the clustering and filtering were examined manually. To ensure the chemical novelty of our selection, we specifically excluded molecules that contain the known arylsulfonamide warhead or structurally resemble antihistamines or beta-receptor blockers. Finally, ten molecules with Tanimoto similarities of less than 0.33 to the known inhibitors of NaV1.7 from the ChEMBL database[43],[44] were selected for synthesis. Of these, nine were successfully synthesized (Supplementary Fig. 16), and their activities were measured using the whole-cell patch-clamp electrophysiology assay on hNaV1.7 channel stably expressed in HEK-293 cells as described in Methods.
HEK-293 cells stably expressing human NaV1.5 and NaV1.7 were obtained from Dr. Chris Lossin (UC Davis, CA). HEK293 cells stably expressing HERG (hKv11.1) were a gift from Craig January (University of Wisconsin, Madison). Cells were cultured in complete DMEM supplemented with 10% FBS, 1% penicillin/streptomycin, and G418. All manual whole-cell patch-clamp recordings were performed at room temperature (22–24 °C) using an EPC-10 amplifier (HEKA Electronik, Lambrecht/Pfalz, Germany) on cells that were grown to 60–80% confluency, lifted with TrypLE, and plated onto poly-l-lysine–coated coverslips. External bath solution contains (in mM) 160 NaCl, 4.5 KCl, 2 CaCl2, 1 MgCl2, 10 HEPES (pH 7.4 and 305 mOsm) as. Patch pipettes were heat-pulled from soda lime glass (micro-hematocrit tubes, Kimble Chase, Rochester, NY) and had resistances of 2–3 MΩ when filled with an internal solution. Patch recordings of NaV1.5 and NaV1.7 channels were done using a cesium fluoride-based internal solution containing (in mM) 10 NaF, 110 CsF, 20 CsCl, 10 HEPES, 2 EGTA, (pH 7.4, 310 mOsm). Recordings of HERG channels were conducted using a potassium fluoride-based internal solution with added ATP (160 mM KF, 2 mM MgCl2, 10 mM EGTA, 10 mM HEPES, 4 mM NaATP, pH = 7.2 and 300–320 mOsm). Data acquisition and analysis were performed with Pulse-PulseFit (HEKA Electronik GmbH, Germany), IgorPro (WaveMetrics, Portland, OR), and Origin 9.0 software (OriginLab Corporation, Northampton, MA). To investigate specifically the inactivated state block of NaV1.7 and NaV1.5, holding potentials were set at the V1/2 of maximal inactivation (− 70 mV and − 80 mV, respectively) before voltage stepping to − 150 mV for 20 msec, and then 0 mV for 50 msec to elicit inward currents. Inhibition of currents in the resting state was recorded using a holding potential of − 120 mV. Control test currents were monitored for up to 5–10 min to ensure that the amplitude and kinetics of the response were stable. Series resistance was compensated to 80–90% and linear leak currents and capacitance artifacts were corrected using a P/4 subtraction method. The pulse interval was 0.1 Hz. For all experiments, stock solutions of the drugs were prepared fresh from 10 mM stocks in DMSO and test solutions prepared in external bath solutions were applied to individual cells into the recording bath. […] The percent reduction of HERG tail current amplitude by the compounds was determined. The percent of a block of tail current amplitude by the drugs was determined and data are shown as mean +/− SD (n = 3–4 per data point).

Molecule | IC50 [µM]
CC(C)=CCOc1ccc(CCC(C)NCC(O)CCC2CC2)cc1 (stereo not shown) [Compound Z8739905023, CC(CCC=1C=CC(OCC=C(C)C)=CC1)NCC(O)CCC2CC2] | 2.3

Target: T2, KLHDC2
Experiment: AlphaLISA competition assay (displacement of SelK C-end degron peptide from GST-KLHDC2)
Assay type: binding
Conditions: IC50, competition with biotinylated 12 aa SelK degron peptide; 12-point titration, n = 3 technical replicates
Source text: We took the top-ranked 1000 compounds and filtered out compounds with low predicted solubility, unsatisfied hydrogen bonds in the bound conformation, and followed by similarity clustering to reduce the redundancy in ligand structures. A total of 54 molecules that passed the filtering and clustering were manually examined for favorable interactions and geometries in PyMol[34]. Finally, 37 compounds were chosen for chemical synthesis. Out of these, 29 compounds were successfully synthesized (Supplementary Fig. 13) and characterized in an AlphaLISA competition assay, in which each compound was tested for its ability to compete with a diglycine-containing SelK C-end degron peptide for binding KLHDC2. […] This single digit μM IC50 was further confirmed in a competition assay using BioLayer Interferometry (Supplementary Fig. 14).
The kelch repeat domain of human KLHDC2 (UniProt: Q9Y2U9, amino acid 1–362) was subcloned into the pFastBac vector with an N-terminally fused glutathione-S-transferase (GST), and a TEV-cleavage site. A recombinant baculovirus was produced and amplified three times in Sf9 monolayer cells to produce P4. The P4 virus was used to infect HighFive suspension insect cell cultures to produce the recombinant GST-KLHDC2 protein. The cells were harvested 2–3 days post-infection, re-suspended, and lysed in lysis buffer (20 mM Tris, pH 8.0, 200 mM NaCl, 5 mM DTT) in the presence of protease inhibitors (1 μg/ml Leupeptin, 1 μg/ml Pepstatin and 100 μM PMSF) using a microfluidizer. The GST-KLHDC2 protein was isolated from the soluble cell lysate by PierceTM Glutathione Agarose (Thermo Scientific). For AlphaLISA competition assays, the GST-tagged KLHDC2 was further purified by Q Sepharose High-Performance resin (GE Healthcare). The NaCl eluates were subjected to a Superdex-200 size exclusion chromatography column (GE Healthcare). All samples were flash-frozen in liquid nitrogen for storage prior to use. For protein crystallization, the kelch repeat domain of human KLHDC2 (amino acids 22–362) was subcloned into the pET vector with an N-terminally fused His-elongation factor Ts (TSF) and a TEV-cleavage site. The His-TSF-KLHDC2 protein was overexpressed and purified from BL21 (DE3) E. coli cells. Bacterial cells transformed with the pET-based expression plasmid were grown in LB broth to an OD600 of 0.8–1 and induced with 0.5 mM IPTG. Cells were harvested, re-suspended, and lysed in lysis buffer (20 mM Tris, pH 8.0, 200 mM NaCl, 20 mM imidazole) in the presence of protease inhibitors (1 μg mL–1 leupeptin, 1 μg mL–1 pepstatin and 100 μM phenylmethylsulfonyl fluoride) using a microfluidizer. The His-TSF-KLHDC2 protein was isolated from the soluble cell lysate by HisPurTM Ni-NTA Superflow Agarose (Thermo Fisher Scientific, Waltham, Massachusetts). After TEV cleavage of the His-TSF, KLHDC2 was further purified by Mono Q™ 5/50 GL (GE Healthcare, Chicago, Illinois). The NaCl eluates were subjected to Superdex-200 size-exclusion chromatography (GE Healthcare). Native mass spectrometry was used to confirm KLHDC2 in its apo form. The samples were concentrated by ultrafiltration to 10–22 mg mL−1. All samples were flash-frozen in liquid nitrogen for storage prior to use.
AlphaLISA assays for determining and measuring protein-protein interactions were performed using an EnSpire reader (PerkinElmer). GST-tagged KLHDC2 was attached to anti-GST AlphaLISA acceptor beads. Synthetic N-terminal biotinylated 12 aa SelK degron peptide ([Biotin]HLRGSPPPMAGG[C) (Bio-Synthesis, Inc.) was immobilized to streptavidin-coated AlphaLISA donor beads. The donor and acceptor beads were brought into proximity by the interactions between the SelK peptide and KLHDC2. Excitation of the donor beads by a laser beam of 680 nm promotes the formation of singlet oxygen. When an acceptor bead is in close proximity, the singlet oxygen reacts with thioxene derivatives in the acceptor beads and causes the emission of 615 nm photons, which are detected as the binding signal. […]

Molecule | IC50 [µM]
Cc1cc(C)c(C(=O)NCC(=O)NCc2cn(CC(=O)O)nn2)s1 [Compound C2.8] | 1.1
O=C(O)Cn1cc(CNC(=O)c2ccccc2SCC2CCCO2)nn1 (stereo not shown) [Compound C2.16] | 3.3
C=CCN(Cc1cn(CC(=O)O)nn1)C(=O)CCSCc1ccccc1 [Compound C2.19] | 3.4
CN(Cc1cn(CC(=O)O)nn1)C(=O)CCCSc1ccc(Cl)cc1 [Compound C2.4] | 10
C=CCN(Cc1cn(CC(=O)O)nn1)C(=O)CSc1cc(C)ccc1C [Compound C2.6] | 6.2
Cc1cc(C(=O)NCCCn2cnnn2)c(C)n1Cc1ccccc1 [Compound C17] | 121
CC(NC(=O)CSCc1nc2ccccc2s1)c1cn(CC(=O)O)nn1 (stereo not shown) [Compound C2.20] | 4.1
CC(=CC(=O)N1CCN(C(=O)Cc2cnc3ncccn23)C2CC21)C(C)C (stereo not shown) [Compound C1] | 488
COc1ccc(CN(C)C(=O)COC(=O)Cn2ccnn2)cc1OC [Compound C18] | 377
CC1(C)CCCC(CC(=O)NC(C)(C)CNC(=O)c2ccnnc2S)C1 (stereo not shown) [Compound C6] | 124
C[C@H]1CN(C(=O)C(OC(C)(C)C)C(C)(C)C)C[C@H]1NC(=O)CCn1ccnn1 (stereo partly shown) [Compound C4] | 2070
